Activity calls are given as the source filed them.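 The calls were made as follows: active = mean IC50, the dose halving TNF-driven NF-kB light signal, at or below a set limit; inactive = the rest.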
Each compound was assayed on HEK-293T NF-kB-Luc, TNFa-induced, luminescence, 14 h (assay: TNFa-driven NF-kB luciferase inhibition, HEK-293T – cell-based, HEK-293T NF-kB-Luc, luminescence, hits from both screens, counter-screen for BCR/TCR NF-kB inhibitor project, dose response (AID 489020);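 also: TNF-alpha stimulus at 0.1 ng/mL added with the seeded cells; selectivity counterscreen for hits from B- and T-cell receptor NF-kB screens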).
For `CCCCCn1c(=O)[nH]c2cc(C(=O)N3CCN(Cc4ccc5c(c4)OCO5)CC3)ccc2c1=O`, the IC50 was < 160 nM. With `Cc1cc(CSc2ccccc2)ccc1NC(=O)c1ccc(CN2CCOCC2)cc1` the IC50 was 260 nM. In the case of `Nc1nc(Cl)nc2c1ncn2C1CC(O)C(CO)O1` (stereo unspecified), the IC50 is reported as > 80000 nM (inactive). For `COc1cc(NC(C)CCCN)c2ncccc2c1` (stereo unspecified), the IC50 was 22900 nM (inactive). For `C#CC(=O)N(c1cccc(OC)c1)C(C(=O)NC1CCCC1)c1cccs1` (stereo unspecified), the IC50 was 2650 nM. With `CCCCCCCCNc1ncnc2ccccc12` the IC50 was < 160 nM. In the case of `CC(C)c1ccc(-c2nnn(CCC(=O)O)n2)cc1`, the IC50 is reported as 380 nM. `COc1ccccc1C(=O)Nc1nc(-c2ccc(S(=O)(=O)N3CCOCC3)cc2)cs1` was tested, and the IC50 was 1180 nM. `N#Cc1c(NC(=O)CSc2ncn[nH]2)sc2c1CCCCC2` was tested, and the IC50 was 180 nM. For `COc1ccc(CCNc2ncnc3sccc23)cc1OC`, the IC50 was < 160 nM. In the case of `CC(C)Cc1cc(C(C)(C)C)ccc1OC(=S)N(C)C`, the IC50 is reported as > 80000 nM (inactive). For `COc1cccc2c1C(CO)N1C(C#N)C3CC(C(=O)O)C(C1C2)N3C` (stereo unspecified), the IC50 was < 160 nM. In the case of `O=S(=O)(NCC1CCCO1)c1ccc(-c2ccc(S(=O)(=O)NCC3CCCO3)cc2)cc1` (stereo unspecified), the IC50 is reported as 320 nM. With `Cc1ccc(Cn2ccsc2=NC(=O)CCl)cc1` the IC50 was 15500 nM. With `OCCCNc1nccc(-c2cc(Nc3cccc(Cl)c3)ncn2)n1` the IC50 was 550 nM. In the case of `COc1cccc2c1C(=O)c1c(O)c3c(c(O)c1C2=O)C[C@@](O)(C(=O)CO)C[C@@H]3O[C@H]1C[C@H](N)[C@H](O)[C@H](C)O1`, the IC50 is reported as 26900 nM (inactive). For `Cc1cc([N+](=O)[O-])nn1Cc1ccccc1F`, the IC50 was > 80000 nM (inactive). `N=c1c2c(n(Cc3ccc(Br)cc3)c3c1CCC3)CCCC2` showed an IC50 of 4300 nM. `CCc1ccc(-c2nc(CS(=O)CC(=O)NCc3ccco3)c(C)o2)cc1` (stereo unspecified) was tested, and the IC50 was 57900 nM (inactive). For `C[C@@H]1O[C@@H](O[C@@H]2C=C3CCC4C(CC[C@]5(C)[C@@H](c6ccc(=O)oc6)CC[C@]45O)[C@@]3(C)CC2)[C@H](O)[C@H](O)[C@H]1O` (stereo partly specified), the IC50 was < 160 nM. `COC1=CC(=O)[C@]2(C=C1OC)OC[C@@H]1Oc3c(ccc4c3C=CC(C)(C)O4)C(=O)[C@@H]12` showed an IC50 of 610 nM. For `CCOC(=O)C1CCCN(S(=O)(=O)c2ccc(S(=O)(=O)N(CC)CC)cc2)C1` (stereo unspecified), the IC50 was 560 nM. `O=C(CCl)N=c1sccn1Cc1ccc(Cl)cc1Cl` was tested, and the IC50 was 21000 nM (inactive). In the case of `CCn1c(C)cc(C(=O)COC(=O)c2ccccc2[N+](=O)[O-])c1C`, the IC50 is reported as < 160 nM. In the case of `Cc1ccc(-c2csc(NC(=O)C3CCN(S(=O)(=O)c4cccs4)CC3)n2)cc1`, the IC50 is reported as 2140 nM. `COc1ccc(-c2c[n+]3c(n2-c2ccc(C)cc2)CCCCC3)cc1` showed an IC50 of 1620 nM. For `CCCCCCCCCCCCn1ccc(=N)cc1`, the IC50 was 2390 nM. `CCCCCCn1c2c(c(=N)c3c1CCC3)CCC2` was tested, and the IC50 was 950 nM. With `Cc1ccc(OCCN2CCN(c3ncnc4sc(C)c(C)c34)CC2)cc1` the IC50 was < 160 nM. With `C#CC(=O)N(c1cc(OC)ccc1OC)C(C(=O)NC1CCCC1)c1cccs1` (stereo unspecified) the IC50 was 3850 nM. `Cc1cc(Cl)c(S(=O)(=O)N2CCCCCC2)cc1OCC(=O)NC1CCCCC1` showed an IC50 of 240 nM. `Cc1cc(N2CCN(c3nc4ccccc4s3)CC2)n2ncnc2n1` gave an IC50 of 1260 nM. For `CC1CCCN(c2ccc([N+](=O)[O-])cc2C(=O)c2ccccc2)C1` (stereo unspecified), the IC50 was 10100 nM. `CN(C)c1ccc(-c2n(C)c3ccccc3[n+]2C)cc1` was tested, and the IC50 was 6580 nM. `Cn1nc(C(C)(C)C)cc1C(=O)NCc1ccc(N2CCCC2=O)cc1` gave an IC50 of 2010 nM. With `CC(C)(C)c1ccc(C(=O)Nc2ccc(CC(=O)O)cc2)o1` the IC50 was 170 nM. With `COc1ccc(/C=C2\SC(=O)N(CCCC(=O)Nc3cc(Cl)ccc3C(=O)O)C2=O)cc1` the IC50 was 1120 nM. With `O=C(O)CSCC(=O)Nc1ccc(C2CCCCC2)cc1` the IC50 was 470 nM. Work on `Cc1ccc(NC(=O)COc2ccc(N(C)C(=O)C(C)(C)C)cc2)cc1S(=O)(=O)N1CCCCC1` yielded an IC50 of 1740 nM. `O=C(c1ccc(Br)cc1)c1cc([N+](=O)[O-])ccc1N1CCCCC1` was tested, and the IC50 was 24500 nM (inactive). In the case of `CC(=O)c1cn(Cc2ccccc2C#N)c2ccccc12`, the IC50 is reported as 880 nM. `CC[n+]1c(C=C2C=C(C)OC(C)=C2)sc2ccccc21` gave an IC50 of 1900 nM. In the case of `N#CC(c1cccc(Cl)c1)c1ccc2c(C(F)(F)F)cc(C(F)(F)F)nc2n1` (stereo unspecified), the IC50 is reported as > 80000 nM (inactive). In the case of `COc1cc2c(cc1OC)[C@@H]1C(=O)c3ccc4c(c3O[C@@H]1CO2)C[C@H](C(C)C)O4`, the IC50 is reported as < 160 nM. `COc1ccc(-c2nc(-c3ccccn3)no2)cc1` showed an IC50 of 2000 nM. Compound `N#Cc1c(NC(=O)CSc2ncn[nH]2)sc2c1CCCC2` has an IC50 of 610 nM.
